Test results reported in US11110082B2, “Tyrosine kinase inhibitors” (Rigel Pharmaceuticals, Inc., priority 2016, dated 2021).

Target: T1, MerTK (Homo sapiens, UniProt Q12866)
T1 construct: Seed HUVECs (10K cells/well) in EBM-2 complete media; host or cells: HUVEC (primary human umbilical vein endothelial cells)
T1 sequence (Q12866 21-999): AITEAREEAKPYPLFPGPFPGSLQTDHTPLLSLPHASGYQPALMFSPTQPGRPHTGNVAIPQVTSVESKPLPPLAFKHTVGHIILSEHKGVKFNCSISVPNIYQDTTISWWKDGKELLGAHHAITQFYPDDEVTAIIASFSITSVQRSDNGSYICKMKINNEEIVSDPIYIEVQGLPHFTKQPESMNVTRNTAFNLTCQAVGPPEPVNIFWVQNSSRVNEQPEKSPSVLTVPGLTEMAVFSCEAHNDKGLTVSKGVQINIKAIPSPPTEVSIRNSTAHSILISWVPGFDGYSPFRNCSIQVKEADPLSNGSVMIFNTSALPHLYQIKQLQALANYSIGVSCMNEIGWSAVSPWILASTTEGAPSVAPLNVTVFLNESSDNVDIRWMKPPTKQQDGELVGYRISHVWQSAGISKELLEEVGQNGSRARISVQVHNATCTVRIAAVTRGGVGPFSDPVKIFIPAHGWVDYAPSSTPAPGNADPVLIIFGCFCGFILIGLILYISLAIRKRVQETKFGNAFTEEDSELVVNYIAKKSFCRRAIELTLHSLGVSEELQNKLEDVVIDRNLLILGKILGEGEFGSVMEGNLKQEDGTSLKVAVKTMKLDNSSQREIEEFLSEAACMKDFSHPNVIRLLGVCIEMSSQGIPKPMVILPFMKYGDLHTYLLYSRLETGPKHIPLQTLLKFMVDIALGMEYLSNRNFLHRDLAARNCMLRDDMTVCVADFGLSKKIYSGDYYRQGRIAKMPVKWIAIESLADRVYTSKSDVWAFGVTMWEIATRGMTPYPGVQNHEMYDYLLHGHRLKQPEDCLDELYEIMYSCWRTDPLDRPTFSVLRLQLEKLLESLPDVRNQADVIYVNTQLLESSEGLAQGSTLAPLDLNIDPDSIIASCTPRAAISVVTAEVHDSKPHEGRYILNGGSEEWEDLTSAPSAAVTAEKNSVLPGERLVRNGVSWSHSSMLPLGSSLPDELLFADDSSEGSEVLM
Experiment: PAKT HTRF-HUVEC assay (pAkt Ser473 HTRF after anti-human MerTK-XL stimulation)
Type: cell-based
Settings: HUVEC cells, 1 hour compound, stimulated with anti-human MerTK-XL 1 ug/mL for 10 minutes, read-out: inhibition of MerTK
Procedure: Example 4: PAKT HTRF-HUVEC Assay Phospho Akt (Ser473) Assay kit-10,000 tests (Cisbio US, 64[…]) HUVEC cells (Lonza, CC-2519) Anti-human MerTK antibody (Clone 125518) (R&D Systems, MAB8912) Method Seed HUVECs (10K cells/well) in EBM-2 complete media (EBM-2 basal medium plus EGM-2 BulletKit supplements) overnight at 37° C., 5% CO2 in Costar 96-well white clear-bottom plates. Remove culture media and starve cells for 3-4 hours in 50 μL/well EBM-2 basal medium. Perform serial dilution of compounds in DMSO from 2.5 mM in 4-fold dilutions, and then dilute 1:125 in EBM-2 basal media. Mix 50 μL/well 2x compounds with 50 μL/well HUVECs in duplicate in Costar 96-well white clear-bottom plates. Incubate plates for 1 hour at 37° C., 5% CO2. Cross-link anti-human MerTK antibody to Biotin-SP-conjugated anti-mouse IgG antibody (1:1) to give final concentrations of 5 ug/mL of anti-human MerTK-XL. Stimulate HUVECs with 25 μL/well 5x anti-human MerTK-XL to give final concentrations of 1 ug/mL for 10 minutes at 37° C., 5% CO2. Completely remove media and lyse HUVECs with 40 uL/WELL per well of Cisbio HTRF 1× lysis buffer. Performed pAkt(Ser473) HTRF assay in ProxiPlate-384 Plus, white 384-shallow well microplate according to the vendor protocol and read plates with a SpectralMax Paradigm plate reader. Enter the HTRF values into Athena (Rigel) for curve fitting, EC50 calculation, and database storage.

| Structure (SMILES) | EC50 [nM] |
| --- | --- |
| CCCCNc1ncc2c3ccccc3c(=O)n(C3CCC(C)(O)CC3)c2n1 (stereo not drawn) [Compound 113, trans-3-(Butylamino)-5-(4-hydroxy-4-methylcyclohexyl)pyrimido [4,5-c]isoquinolin-6(5H)-one] | 44.9 |
| CCCCNc1ncc2c3ccc(N4CCN(C)CC4)cc3c(=O)n(CC3CCC(N)CC3)c2n1 (centres unmarked) [Compound 65, 5-((4-Aminocyclohexyl)methyl)-3-(butylamino)-8-(4-methylpiperazin-1-yl)pyrimido[4,5-c]isoquinolin-6(5H)-one] | 78.3 |
| CCCCNc1ncc2c3ccc(CN4CCN(C)CC4)cc3c(=O)n([C@H]3CC[C@H](N(C)C)C3)c2n1 [Compound 236, 3-(butylamino)-5-((1S,3S)-3-(dimethylamino)cyclopentyl)-8-((4-methylpiperazin-1-yl)methyl)pyrimido[4,5-c]isoquinolin-6(5H)-one] | 130 |
| N[C@H]1CC[C@H](n2c(=O)c3cc(Cl)ccc3c3cnc(NCC4CC4)nc32)CC1 [Compound 205] | 293 |
| CN1CCN(Cc2ccc3c(c2)c(=O)n([C@H]2CC[C@H](O)CC2)c2nc(NCC4CC4)ncc32)CC1 [Compound 16, trans-3-((Cyclopropylmethyl)amino)-5-(4-hydroxycyclohexyl)-8-((4-methylpiperazin-1-yl)methyl)pyrimido[4,5-c]isoquinolin-6(5H)-one] | 63.9 |
| CN1CCN(Cc2ccc3c(c2)c(=O)n([C@H]2CC[C@H](C(=O)O)CC2)c2nc(NCC4CC4)ncc32)CC1 [Compound 135, trans-4-(3-((Cyclopropylmethyl)amino)-8-((4-methylpiperazin-1-yl)methyl)-6-oxopyrimido[4,5-c]isoquinolin-5(6H)-yl)cyclohexane-1-carboxylic Acid] | 4040 |
| CN1CCN(Cc2ccc3c(c2)c(=O)n(C2CCC(C)(C)CC2)c2nc(NCC4CCC4)ncc32)CC1 [Compound 146] | 7.4 |
| O=c1c2cc(N3CCN4CCC[C@H]4C3)ccc2c2cnc(NCC3CC3)nc2n1[C@H]1CC[C@H](O)CC1 [Compound 102, trans-3-((Cyclopropylmethyl)amino)-8-((S)-hexahydropyrrolo[1,2-a]pyrazin-2(1H)-yl)-5-(4-hydroxycyclohexyl)pyrimido [4,5-c]isoquinolin-6(5H)-one] | 123 |
| O=c1c2cc(CN3CCC4(CC3)COC4)ccc2c2cnc(NCC3CC3)nc2n1[C@H]1CC[C@H](O)CC1 [Compound 186, trans-8-((2-Oxa-7-azaspiro[3.5]nonan-7-yl)methyl)-3-((cyclopropylmethyl)amino)-5-(4-hydroxycyclohexyl)pyrimido[4,5-c]isoquinolin-6(5H)-one] | 45.4 |
| CCCCNc1ncc2c3ccc(CN4CCN(C)CC4)cc3c(=O)n([C@H]3CC[C@H](N)C3)c2n1 [Compound 232, 5-((1S,3S)-3-aminocyclopentyl)-3-(butylamino)-8-((4-methylpiperazin-1-yl)methyl)pyrimido[4,5-c]isoquinolin-6(5H)-one] | 43 |
| CCCCNc1ncc2c3ccc(N4CCNCC4)cc3c(=O)n(C3CCC(=O)CC3)c2n1 [Compound 84, 3-(Butylamino)-5-(4-oxocyclohexyl)-8-(piperazin-1-yl)pyrimido[4,5-c]isoquinolin-6(5H)-one] | 288 |
| O=c1c2cc(CN3CCN4CCC3CC4)ccc2c2cnc(NCC3CC3)nc2n1[C@H]1CC[C@H](O)CC1 [Compound 58, trans-8-((1,4-Diazabicyclo[3.2.2]nonan-4-yl)methyl)-3-((cyclopropylmethyl)amino)-5-(4-hydroxycyclohexyl)pyrimido [4,5-c]isoquinolin-6(5H)-one] | 115 |
| CN1CCN(Cc2ccc3c(c2)c(=O)n([C@H]2CCC[C@H](O)CC2)c2nc(NCC4CC4)ncc32)CC1 [Compound 230, 3-((cyclopropylmethyl)amino)-5-((1S,4S)-4-hydroxycycloheptyl)-8-((4-methylpiperazin-1-yl)methyl)pyrimido[4,5-c]isoquinolin-6(5H)-one] | 140 |
| O=c1c2cc(CN3CCN(c4ccncc4)CC3)ccc2c2cnc(NCC3CC3)nc2n1[C@H]1CC[C@H](O)CC1 [Compound 124, trans-3-((Cyclopropylmethyl)amino)-5-(4-hydroxycyclohexyl)-8-((4-(pyridin-4-yl)piperazin-1-yl)methyl)pyrimido[4,5-c]isoquinolin-6(5H)-one] | 36.2 |
| CCCCNc1ncc2c3ccc(N4CCN(C)CC4)cc3c(=O)n(C3CCC(C)(O)CC3)c2n1 (stereo not drawn) [Compound 86, trans-3-(Butylamino)-5-(4-hydroxy-4-methylcyclohexyl)-8-(4-methylpiperazin-1-yl)pyrimido[4,5-c]isoquinolin-6(5H)-one] | 19.9 |
| CN1CC2(C1)CN(c1ccc3c(c1)c(=O)n([C@H]1CC[C@H](O)CC1)c1nc(NC4CC(F)C4)ncc31)C2 (stereo partly drawn) [Compound 74, trans-3-((3-Fluorocyclobutyl)amino)-5-(4-hydroxycyclohexyl)-8-(6-methyl-2,6-diazaspiro[3.3]heptan-2-yl)pyrimido[4,5-c]isoquinolin-6(5H)-one] | 218 |
| CCC[C@H](C)Nc1ncc2c3ccc(CN4CCN(c5ccncc5)CC4)cc3c(=O)n([C@H]3CC[C@H](O)CC3)c2n1 [Compound 219, trans-5-(4-Hydroxycyclohexyl)-3-(((S)-pentan-2-yl)amino)-8-((4-(pyridin-4-yl)piperazin-1-yl)methyl)pyrimido[4,5-c]isoquinolin-6(5H)-one] | 18.3 |
| CN1CCN(Cc2ccc3c(c2)c(=O)n(C2CCN(C(=O)CC#N)CC2)c2nc(NCC4CC4)ncc32)CC1 [Compound 192] | 4040 |
| CCCCNc1ncc2c3ccc(CN4CCN(C)CC4)cc3c(=O)n([C@H]3CC[C@H](C(=O)NCC(F)(F)F)CC3)c2n1 [Compound 139, trans-4-(3-(Butylamino)-8-((4-methylpiperazin-1-yl)methyl)-6-oxopyrimido[4,5-c]isoquinolin-5(6H)-yl)-N-(2,2,2-trifluoroethyl)cyclohexane-1-carboxamide] | 134 |
| CCCCNc1ncc2c3ccc(N4CCNCC4)cc3c(=O)n([C@H]3CC[C@H](O)CC3)c2n1 [Compound 83, trans-3-(Butylamino)-5-(4-hydroxycyclohexyl)-8-(piperazin-1-yl)pyrimido[4,5-c]isoquinolin-6(5H)-one] | 31.8 |
| CC(C)N1CCN(Cc2ccc3c(c2)c(=O)n([C@H]2CC[C@H](O)CC2)c2nc(NCC4CCC4)ncc32)CC1 [Compound 33, trans-3-((Cyclobutylmethyl)amino)-5-(4-hydroxycyclohexyl)-8-((4-isopropylpiperazin-1-yl)methyl)pyrimido[4,5-c]isoquinolin-6(5H)-one] | 4.6 |
| CN1CCN(Cc2ccc3c(c2)c(=O)n([C@H]2CC[C@H](O)CC2)c2nc(NCCC4CC4)ncc32)CC1 [Compound 26, trans-3-((2-Cyclopropylethyl)amino)-5-(4-hydroxycyclohexyl)-8-((4-methylpiperazin-1-yl)methyl)pyrimido[4,5-c]isoquinolin-6(5H)-one] | 16.7 |
| O=c1c2cc(CN3CCC(c4nnn[nH]4)CC3)ccc2c2cnc(NCC3CC3)nc2n1C1CCC(O)CC1 (centres unmarked) [Compound 143, 8-((4-(1H-tetrazol-5-yl)piperidin-1-yl)methyl)-3-((cyclopropylmethyl)amino)-5-((1s,4s)-4-hydroxycyclohexyl)pyrimido[4,5-c]isoquinolin-6(5H)-one] | 13500 |
